The experiment deals with T1, ATPBD of A. fulgidus CopB (Strep-tagged) (Archaeoglobus fulgidus, UniProt O30085).
T1 sequence (O30085 372-636): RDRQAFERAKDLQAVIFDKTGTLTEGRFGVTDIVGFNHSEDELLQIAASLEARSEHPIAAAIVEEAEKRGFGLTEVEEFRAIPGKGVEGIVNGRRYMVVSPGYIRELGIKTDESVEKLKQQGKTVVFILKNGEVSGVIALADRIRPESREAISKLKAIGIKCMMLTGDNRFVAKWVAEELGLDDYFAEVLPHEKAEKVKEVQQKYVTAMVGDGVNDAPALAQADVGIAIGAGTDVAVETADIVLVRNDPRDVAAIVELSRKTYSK
The experiment in a line: biochemical.

Compound `Nc1ncnc2c1ncn2[C@@H]1O[C@H](COP(=O)(O)OP(=O)(O)OP(=O)(O)O)[C@@H](O)[C@H]1O` [ATP] displayed a Kd of 34 ± 2 µM.

The Kd is the constant that tells how readily two partners part at equilibrium. A low value points to higher affinity.

The values above are taken from paper PMC3475447 (Bioscience Reports, 2012).
